# Experiments:
# [1] = test system: carrageenan-induced hemorrhoids; assay: Antihaemorrhoidal activity, anorectum:body weight ratio model; type: in vivo; conditions: rats, p.o.; for effect against carrageenan-induced hemorrhoids: chronic administration (7 days)
# Protocol: The antihaemorrhoidal activity of the Euphorbia prostrata extract was assessed and compared with reference drug, diosmin using anorectum:body weight ratio model in rats (modified method of Jia et al., 2000).
# FIG. 1: Effect of Euphorbia prostrata extract (E.p. extract) against carrageenan-induced hemorrhoids in rats.
# FIG. 2: Effect of individual component of Euphorbia prostrata extract (E.p. extract) against carrageenan-induced hemorrhoids in rats.
# [2] = test system: acetic acid-induced chemonociception; assay: Acetic acid-induced writhing; type: in vivo; conditions: mice; for antinociceptive effect in the writhing test: p.o.
# [3] = test system: oedematous response to croton oil; conditions: Della Loggia et al., 1986; cited from earlier work
# [4] = test system: iNOS (inducible nitric oxide synthase); conditions: lipopolysaccharide activated RAW 264.7 macrophages (Liang et al., 1999); cited from earlier work
# COX-2 = conditions: lipopolysaccharide activated RAW 264.7 macrophages (Liang et al., 1999); cited from earlier work
# rat liver microsomes = conditions: CCl4 induced peroxidation; rat liver microsomes (Cholbi et al., 1991); cited from earlier work
# histamine release = conditions: in vivo (Bhargava and Westfall, 1969); cited from earlier work
# murine macrophages = murine macrophages (Xagorari et al., 2001); cited from earlier work
# [5] = test system: carrageenan-induced hyperalgesia; assay: Carrageenan-induced hyperalgesia, paw pressure test; type: in vivo; conditions: rats; 2 mg/kg
# Source text: FIG. 7: Effect of Euphorbia prostrata extract (E.p. extract) against carageenan-induced hyperalgesia in rats.
# [6] = In vitro superoxide radical scavenging activity; type: biochemical; conditions: 25 μg
# Source text: FIG. 9: In vitro superoxide radical scavenging activity of Euphorbia prostrata extract (E.p. extract).
molecule,measurement,setting,value
O=c1cc(-c2ccc(O)cc2)oc2cc(O[C@@H]3O[C@H](CO)[C@@H](O)[C@H](O)[C@H]3O)cc(O)c12 [apigenin-7-glucoside],effect against carrageenan-induced hemorrhoids,[1]; 0.478 mg/kg,showed effect
same,antinociceptive effect in the writhing test,"[2]; 0.5, 1.0, and 2.0 mg/kg",dose-dependent antinociceptive effect
same,oedematous response to croton oil,[3],dose dependent inhibition
O=c1cc(-c2ccc(O)cc2)oc2cc(O)cc(O)c12 [apigenin],inhibition of transcriptional activation of iNOS,[4],most potent inhibitor
same,inhibition of transcriptional activation of COX-2,COX-2,most potent inhibitor
same,antiperoxidative activity,rat liver microsomes,significant antiperoxidative activity
"COc1ccc(-c2cc(=O)c3c(O)cc(O[C@@H]4O[C@H](CO[C@@H]5O[C@@H](C)[C@H](O)[C@@H](O)[C@H]5O)[C@@H](O)[C@H](O)[C@H]4O)cc3o2)cc1O [diosmin, reference compound]",anorectal body weight ratio,"[1]; 50 mg/kg, 7 days",significantly decreased
same,histopathological examination of the anorectum,"[1]; 50 mg/kg, 7 days",intact mucosal layer with prominent mucosal cells and mild leukocyte migration
O=c1oc2c(O)c(O)cc3c(=O)oc4c(O)c(O)cc1c4c23 [ellagic acid],effect against carrageenan-induced hemorrhoids,[1]; 1.204 mg/kg,showed effect
same,"histamine release mediated by histamine liberators (compound 48/80, dextran and polymyxin B sulfate)",histamine release,suppress histamine release
O=C(O)c1cc(O)c(O)c(O)c1 [gallic acid],effect against carrageenan-induced hemorrhoids,[1]; 1.123 mg/kg,showed effect
O=c1cc(-c2ccc(O)c(O)c2)oc2cc(O[C@@H]3O[C@H](CO)[C@H](O)[C@H](O)[C@H]3O)cc(O)c12 [luteolin-7-galactoside],oedematous response to croton oil,[3],dose dependent inhibition
O=c1cc(-c2ccc(O)c(O)c2)oc2cc(O[C@@H]3O[C@H](CO)[C@@H](O)[C@H](O)[C@H]3O)cc(O)c12 [luteolin-7-glucoside],antinociceptive effect in the writhing test,"[2]; 0.25, 0.5, and 1.0 mg/kg",dose-dependent antinociceptive effect
O=c1cc(-c2ccc(O)c(O)c2)oc2cc(O)cc(O)c12 [luteolin],antiperoxidative activity,rat liver microsomes,significant antiperoxidative activity
same,"protein tyrosin phosphorylation, nuclear factor-κB mediated gene expression and pro-inflammatory cytokine production",murine macrophages,inhibits
"CS(=O)(=O)Nc1ccc([N+](=O)[O-])cc1Oc1ccccc1 [nimesulide, reference compound]",pain threshold,[2]; 2 mg/kg,significantly increased
same,paw withdrawal latencies,[5],increased
tocopherol,superoxide radical scavenging activity,[6],25.54%
